According to US6046218A, “Pyridine derivative and medicament containing the same as an effective ingredient” (SS Pharmaceutical Co., Ltd., priority 1996, dated 2000):
Structures can show the parent of a compound that is named as a salt.

Tested on: IL-5 production
Experiment: Test 3: inhibition of IL-5 production in human PBMC stimulated with ConA
Format: cell-based
Settings: 10^-6 M, 10 μg/ml ConA, 48 hours, read-out: Inhibition rate of IL-5 production
Method: Test 3: Test on the inhibition of IL-5 production
The peripheral blood was collected from a normal volunteer and peripheral blood mononuclear cells (PBMC) of the human peripheral blood were separated therefrom by the specific gravity centrifugation method. They were suspended in an AIM-V medium and their cell count was adjusted. To individual wells of a 96-well incubation plate, 1×10^6 cells/ml of PBMC were poured, followed by the addition of a stimulator (10 μg/ml of ConA) and a medicament. The resulting mixture was incubated in 5% CO2 at 37° C. for 48 hours. After incubation, 50 μl of the supernatant were collected and subjected to measurement by a human IL-5 EIA kit (BIO SOURCE, INC.). The inhibition rate was calculated according to the following formula. [formula]

| SMILES | inhibition at 1 µM [%] |
| --- | --- |
| Oc1cnc(/C=C/C(O)c2ccccc2)cc1O (centres unmarked) [Ex. 25, 4,5-Dihydroxy-2-(3-hydroxy-3-phenyl-1-propenyl)pyridine] | 97.5 |
| COc1cnc(/C=C/C(=O)c2ccccc2OC)cc1O [Ex. 60, 4-Hydroxy-5-methoxy-2-[3-(2-methoxyphenyl)-3-oxo-1-propenyl]pyridine] | 91.4 |
| COc1ccc(OC)c(C(=O)/C=C/c2cc(O)c(OC)cn2)c1 [Ex. 57, 4-Hydroxy-5-methoxy-2-[3-(2,5-dimethoxyphenyl)-3-oxo-1-propenyl]pyridine] | 82.5 |
| COc1cnc(/C=C/C(=O)c2ccco2)cc1OC [Ex. 62, 4,5-Dimethoxy-2-[3-(2-furyl)-3-oxo-1-propenyl]pyridine] | 72.3 |
| COc1cnc(/C=C/C(=O)c2cc(OC)c(OC)c(OC)c2)cc1OCCCCCCO [Ex. 102, 6-[5-Methoxy-2-(3-oxo-3-(3,4,5-trimethoxyphenyl)-1-propenyl)-4-pyridyloxy]hexyl alcohol hydrochloride] | 97.3 |
| CCOC(=O)CCCCCOc1cnc(/C=C/C(=O)c2ccccc2)cc1OC [Ex. 83, Ethyl 6-[4-methoxy-6-(3-oxo-3-phenyl-1-propenyl)-3-pyridyloxy]hexanoate] | 96.2 |
| COc1cnc(/C=C/C(=O)c2ccc(OC)c(OC)c2)cc1O [Ex. 58, 4-Hydroxy-5-methoxy-2-[3-(3,4-dimethoxyphenyl)-3-oxo-1-propenyl]pyridine hydrochloride] | 91.3 |
| COc1cnc(/C=C/C(=O)c2ccccn2)cc1OC [Ex. 66, 4,5-dimethoxy-2-[3-oxo-3-(2-pyridyl)-1-propenyl]pyridine] | 70.1 |
| COc1cnc(/C=C/C(=O)c2ccccc2OC)cc1OC [Ex. 49] | 65 |
| COc1cnc(/C=C/C(=O)N2CCOCC2)cc1OC [Ex. 110, 4,5-Dimethoxy-2-(3-morpholino-3-oxo-1-propenyl)pyridine hydrochloride] | 79.3 |
| CCOC(=O)CCCOc1cc(/C=C/C(=O)C2CCC2)ncc1OC [Ex. 80, Ethyl 4-[2-(3-cyclobutyl-3-oxo-1-propenyl)-5-methoxy-4-pyridyloxy]butanoatehydrochloride] | 69.2 |
| COc1cnc(/C=C/C(=O)c2ccsc2)cc1O [Ex. 65, 4-Hydroxy-5-methoxy-2-[3-oxo-3-(3-thienyl)-1-propenyl]pyridine] | 77.2 |
| COC(=O)CCCOc1cc(/C=C/C(O)c2ccccc2)ncc1OC (centres unmarked) [Ex. 29, Methyl 4-[2-(3-hydroxy-3-phenyl-1-propenyl)-5-methoxy-4-pyridyloxy]butanoate] | 99.8 |
| CCOc1cnc(/C=C/C(=O)c2ccccc2)cc1O [Ex. 55, 5-Ethoxy-4-hydroxy-2-(^3-oxo-3-phenyl-1-propenyl]pyridine] | 97.5 |
| CCCCCC(O)/C=C/c1cc(OC)c(OCCCCC(=O)O)cn1 (centres unmarked) [Ex. 41, 5-[2-(3-Hydroxy-1-octenyl)-4-methoxy-5-pyridyloxy]pentanoic acid hydrochloride] | 91 |
| COc1cnc(/C=C/C(O)c2ccccc2)cc1OCCCC(=O)O (centres unmarked) [Ex. 34, 4-[2-(3-Hydroxy-3-phenyl-1-propenyl)-5-methoxy-4-pyridyloxy]butanoic acid] | 61 |
| CCOC(=O)CCCCOc1cc(/C=C/C(=O)c2cc(OC)ccc2OC)ncc1OC [Ex. 89, Ethyl 5-[5-methoxy-2-(3-(2,5-dimethoxyphenyl)-3-oxo-1-propenyl)-4-pyridyloxy]pentanoate] | 82.1 |
| CCOC(=O)CCCOc1cc(/C=C/C(=O)c2ccccc2OC)ncc1OC [Ex. 93, Ethyl 4-[5-methoxy-2-(3-(2-methoxyphenyl)-3-oxo-7-propenyl)-4-pyridyloxy]butanoate hydrochloride] | 66 |
| COc1cnc(/C=C/C(=O)c2cccs2)cc1OC [Ex. 63, 4,5-Dimethoxy-2-[3-oxo-3-(2-thienyl)-1-propenyl]pyridine] | 81 |
| COc1cnc(/C=C/C(=O)N2CCCCC2)cc1OC [Ex. 107, 4,5-dimethoxy-2-(3-oxo-3-piperidino-1-propenyl)pyridine hydrochloride] | 71.9 |
